This note sets out measurements from US10022459B2, “Medical tissue-marker and manufacturing method for the same” (NATIONAL UNIVERSITY CORPORATION CHIBA UNIVERSITY, priority 2011, dated 2018).

Assay [1] has as its system submucosal layer of the stomach wall of a pig. The experiment in a line: Local injection into submucosal layer of the stomach wall of a pig, fluorescent laparoscope view from the outside of the stomach. It is filed as in vivo. Here is the method: Then, the fabricated clusters were injected into biological tissue and the result thereof was confirmed. Specifically, submucosal layer of the stomach wall of a pig was a most suitable target of the marker administration. The fluid dispersion of 300 μl, including the clusters, was administrated on four points surrounding a metal clip placed inside the stomach by local injection.
The left and middle panels show conventional and fluorescent laparoscopic images immediately after local injection, respectively. […] It was confirmed that the clusters were sufficiently stable at the injection points. […] In this case, the exact injection positions were unclear immediately after injection as well as 6 hours after injection.
Herein, the stability was again confirmed 24 hours after the local injection of the marker. The submucosal layer of the stomach wall was a most suitable target of the marker administration. The fluid dispersion of 300 μl including clusters was administrated at two points surrounding a metal clip by local injection. The pig recovered from general anesthesia after the administration. Twenty-four hours later, laparoscopy was performed again under general anesthesia.
The optimum injection amount of the marker was verified. When the concentration of the clusters according to the example 1 was 100 μl or more, the injection points could be confirmed. The concentration thereof was preferably 200 μl or more, and is more preferably 300 μl or more. In FIG. 17, 50 μl was used. In FIG. 18, 100 μl was used. In FIG. 19, 200 μl was used. In FIG. 20, 300 μl was used.

The subject of a further assay is stomach of the pig. The experiment in a line: Fluorescence imaging (near-infrared LED light) of the excised pig stomach after marker administration. It is filed as in vivo. The following applies: 32 hours after administration, 300 μl each at four points. How it is done: Then, the stomach of the pig was excised, and fluorescence and X-ray CT imaging was performed 32 hours after the marker (300 μl each at four points around a metal clip) administration.

On to `CC1(C)C(/C=C/C=C/C=C/C=C2\N(CCCCS(=O)(=O)O)c3ccc4ccccc4c3C2(C)C)=[N+](CCCCS(=O)(=O)[O-])c2ccc3ccccc3c21` [ICG aqueous solution, indocyanine green], for which the “identification of injection points in fluorescent laparoscopic image” value in assay [1] (6 hours after local injection, 300 μl at four points) was “unclear”; in assay [1] (immediately after local injection), “unclear”. Besides, the “distinguishability of four closely located injection points by fluorescent laparoscope” value in assay [1] (18 hours after administration, 300 μl at four points) is “impossible to distinguish”. Moreover, in the assay with stomach of the pig, the “fluorescence pattern at the injection site” value is on record as “broad diffusion of the fluorescence”.
